Where “and” joins values, the source holds several entries; their conditions need not be identical. Equal entries are not always repeated. Where two headings read alike, the source gives them in different places.
Columns and labels:
α7 nAChR = molecular target: T1, α7 nAChR (Homo sapiens, UniProt P36544); experiment: Two-electrode voltage clamp of ACh currents, α7 nAChRs (with RIC-3) expressed in Xenopus oocytes; type: cell-based; details: for IC50: IC50 (95% CI), ACh 100 μM
T1 construct: expressed in transfected cells; host or cells: Xenopus laevis oocytes injected with cRNA
Protocol: (§1) Oocytes isolated from mature female Xenopus laevis were supplied by the European Xenopus Resource Centre, University of Portsmouth, UK. Oocytes were treated with collagenase (0.5 mg/ml, Sigma type 1 A) in Ca^2+-free solution (96 mM NaCl, 2 mM KCl, 1 mM MgCl2, 5 mM HEPES, 2.5 mM Na-pyruvate, 100 U/mL penicillin, 0.1 mg/mL streptomycin, pH 7.5) with shaking at 19 °C to defolliculate and remove the connective tissue surrounding the cells. After separation, oocytes were washed 7 times with modified Barth’s solution (96 mM NaCl, 2 mM KCl, 1.8 mM CaCl2, 1 mM MgCl2, 5 mM HEPES, 2.5 mM Na-pyruvate, 0.5 mM theophylline, 50 μg/mL gentamicin, pH 7.5) and kept at 19 °C in the same solution.
(§2) Healthy oocytes were injected with cRNA using a Nano-liter Injector (World Precision Instruments Inc, USA). Mixtures of nAChR subunit cRNAs were injected as follows; for heteromeric rat neuronal receptors a 1:1 ratio of α:β at 200 ng/μL; for mouse embryonic muscle a 1:1:1:1 ratio of α:β:γ:δ at 25 ng/μL; human α7 at 100 ng/μL was mixed with RIC-3 at 30 ng/μL. Each oocyte was injected with 50 nL of RNA solution. Injected oocytes were saved in Barth’s solution at 19 °C for two to three days for expression of the target protein. During this time oocytes were regularly checked to remove unhealthy ones.
(§3) Electrophysiological recordings were taken from nAChR-expressing oocytes by two-electrode voltage clamp using a Geneclamp 500 voltage clamp amplifier (Axon instruments, USA). An oocyte was placed in the perfusion chamber using a plastic Pasteur pipette and the bath was perfused (~5 mL/min) with fresh Frog Ringer solution (96 mM NaCl, 2 mM KCl, 1.8 mM CaCl2 and 5 mM HEPES, pH 7.5). Microelectrodes were pulled from borosilicate glass capillaries (Harvard GC150TF-10) using a programmable micropipette puller (Sutter P97, USA), and they had resistances between 0.5 and 2.5 MΩ when filled with 3 M KCl. The oocyte was voltage-clamped at holding potentials (VH) between −60 and −100 mV. […] Currents were recorded to a PC via a digidata 1200 analog-to-digital converter (Axon Instuments, USA) using WinEDR v3.2.6 Software (Dr John Dempster, University of Strathclyde, UK).
(§4) Graphpad Prism 6 was used for data analysis, graph plotting and curve fitting. All plotted points are the mean ± SEM obtained from 4–20 oocytes.

[1] = tested on: nAChRs expressed by PC12 cells; details: patch-clamp study of PC12 cells ref 14; cited from earlier work
α4β4 nAChR = molecular target: T2, α4β4 nAChR (Rattus norvegicus, UniProt P09483+P12392); experiment: cell-based; type: cell-based; details: for IC50: IC50 (95% CI), ACh 10 μM
T2 construct: expressed in transfected cells; host or cells: Xenopus laevis oocytes injected with cRNA
Protocol: as §1, §2, §3, §4

α3β4 nAChR = molecular target: T3, α3β4 nAChR (Rattus norvegicus, UniProt P04757+P12392); experiment: cell-based; details: for IC50: IC50 (95% CI)
T3 construct: expressed in transfected cells; host or cells: Xenopus laevis oocytes injected with cRNA
Protocol: as §1, §2, §3, §4

α4β2 nAChR = molecular target: T4, α4β2 nAChR (Rattus norvegicus, UniProt P09483+P12390); experiment: cell-based; type: cell-based; details: for IC50: IC50 (95% CI), ACh 10 μM
T4 construct: expressed in transfected cells; host or cells: Xenopus laevis oocytes injected with cRNA
Protocol: (§5) cDNA clones of rat neuronal nAChR subunits (α3, α4, β2 and β4) and mouse muscle subunits (α1, β1, γ and δ) were from the Salk Institute for Biological Studies (Professor Stephen Heinemann). The human α7 and RIC-3 cDNAs were provided by Professor David Sattelle (University College London).
as §1, §2, §3, §4

nAChRs = experiment: Two-electrode voltage clamp of Xenopus oocytes expressing nAChRs, statements across tested subtypes; type: cell-based
Protocol: as §5, §1, §2, §3, §4

α3β2 nAChR = α3β2 nAChR (Rattus norvegicus, UniProt P04757+P12390); experiment: Two-electrode voltage clamp of ACh currents, α3β2 nAChRs expressed in Xenopus oocytes; details: for IC50: IC50 (95% CI), ACh 30 μM
Protocol: as §1, §2, §3, §4

α4β2(V253F) nAChR = molecular target: T5, α4β2(V253F) nAChR (Rattus norvegicus, UniProt P09483+P12390, V277F); experiment: Two-electrode voltage clamp of ACh currents, α4β2(V253F) nAChRs expressed in Xenopus oocytes; type: cell-based; details: for IC50: α4β2(V253F), ACh 10 μM
T5 construct: expressed in transfected cells; host or cells: Xenopus laevis oocytes injected with cRNA
Protocol: as §5, §1, §2, §3, §4

α1β1γδ nAChR = molecular target: T6, α1β1γδ nAChR (Mus musculus, UniProt P02716+P04756+P04760+P09690); experiment: cell-based; type: cell-based; details: for IC50: IC50 (95% CI), ACh 10 μM
T6 construct: expressed in transfected cells; host or cells: Xenopus laevis oocytes injected with cRNA
Protocol: as §1, §2, §3, §4

α3β4(F255V) nAChR = molecular target: T7, α3β4(F255V) nAChR (Rattus norvegicus, UniProt P04757+P12392, F275V); experiment: Two-electrode voltage clamp of ACh currents, α3β4(F255V) nAChRs expressed in Xenopus oocytes; type: cell-based; details: for IC50: α3β4(F255V), ACh 100 μM
T7 construct: expressed in transfected cells; host or cells: Xenopus laevis oocytes injected with cRNA
Protocol: as §5, §1, §2, §3, §4

[2] = α3β4, after co-application of 10 μM toxin, ACh 100 μM, −80 mV
[3] = VH −60 mV, late current (1 min), read-out: IC50 (95% CI), Late
[4] = VH −60 mV, peak current, read-out: IC50 (95% CI), Peak
[5] = VH −80 mV, late current (1 min), read-out: IC50 (95% CI), Late
[6] = VH −80 mV, peak current, read-out: IC50 (95% CI), Peak
[7] = VH −100 mV, late current (1 min), read-out: IC50 (95% CI), Late
[8] = VH −100 mV, peak current, read-out: IC50 (95% CI), Peak

T6 sequence (P04756 21-457): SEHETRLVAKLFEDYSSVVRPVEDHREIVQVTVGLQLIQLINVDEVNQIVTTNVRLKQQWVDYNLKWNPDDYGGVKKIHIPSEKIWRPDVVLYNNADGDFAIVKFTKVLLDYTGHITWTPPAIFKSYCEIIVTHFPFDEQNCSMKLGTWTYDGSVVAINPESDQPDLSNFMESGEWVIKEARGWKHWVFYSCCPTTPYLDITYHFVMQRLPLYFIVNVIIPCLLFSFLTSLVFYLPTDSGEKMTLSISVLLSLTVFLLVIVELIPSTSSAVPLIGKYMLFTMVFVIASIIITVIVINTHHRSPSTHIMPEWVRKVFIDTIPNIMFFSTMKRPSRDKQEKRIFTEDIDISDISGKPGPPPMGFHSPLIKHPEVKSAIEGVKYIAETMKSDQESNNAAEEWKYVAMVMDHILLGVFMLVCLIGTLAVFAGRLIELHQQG
T6 sequence (P09690 24-501): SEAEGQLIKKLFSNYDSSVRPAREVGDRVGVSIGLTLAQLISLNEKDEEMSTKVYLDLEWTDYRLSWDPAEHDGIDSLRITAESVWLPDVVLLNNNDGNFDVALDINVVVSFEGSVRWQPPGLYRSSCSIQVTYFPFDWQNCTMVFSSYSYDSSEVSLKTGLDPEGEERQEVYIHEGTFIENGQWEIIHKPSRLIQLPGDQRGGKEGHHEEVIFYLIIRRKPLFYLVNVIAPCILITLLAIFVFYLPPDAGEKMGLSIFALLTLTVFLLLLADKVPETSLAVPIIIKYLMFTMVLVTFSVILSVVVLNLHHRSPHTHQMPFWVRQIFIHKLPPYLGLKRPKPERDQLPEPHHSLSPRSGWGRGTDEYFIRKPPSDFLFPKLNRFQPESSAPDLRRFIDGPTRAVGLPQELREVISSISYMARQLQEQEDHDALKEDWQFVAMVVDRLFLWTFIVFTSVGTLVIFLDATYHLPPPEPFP
T6 sequence (P04760 23-519): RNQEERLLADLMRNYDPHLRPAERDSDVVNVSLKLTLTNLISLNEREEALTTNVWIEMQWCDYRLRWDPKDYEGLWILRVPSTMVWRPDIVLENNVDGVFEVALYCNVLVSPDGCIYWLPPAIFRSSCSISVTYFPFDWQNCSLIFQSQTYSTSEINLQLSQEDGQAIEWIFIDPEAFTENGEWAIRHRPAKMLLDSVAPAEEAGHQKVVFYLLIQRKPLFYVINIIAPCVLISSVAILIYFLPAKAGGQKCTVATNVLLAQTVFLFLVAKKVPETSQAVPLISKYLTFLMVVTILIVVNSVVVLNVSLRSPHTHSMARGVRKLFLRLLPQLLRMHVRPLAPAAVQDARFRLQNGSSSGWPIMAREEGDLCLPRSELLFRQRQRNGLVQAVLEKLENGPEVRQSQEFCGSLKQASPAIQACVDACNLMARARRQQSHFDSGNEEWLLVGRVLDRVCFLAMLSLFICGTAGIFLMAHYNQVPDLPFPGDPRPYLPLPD
T6 sequence (P02716 25-520): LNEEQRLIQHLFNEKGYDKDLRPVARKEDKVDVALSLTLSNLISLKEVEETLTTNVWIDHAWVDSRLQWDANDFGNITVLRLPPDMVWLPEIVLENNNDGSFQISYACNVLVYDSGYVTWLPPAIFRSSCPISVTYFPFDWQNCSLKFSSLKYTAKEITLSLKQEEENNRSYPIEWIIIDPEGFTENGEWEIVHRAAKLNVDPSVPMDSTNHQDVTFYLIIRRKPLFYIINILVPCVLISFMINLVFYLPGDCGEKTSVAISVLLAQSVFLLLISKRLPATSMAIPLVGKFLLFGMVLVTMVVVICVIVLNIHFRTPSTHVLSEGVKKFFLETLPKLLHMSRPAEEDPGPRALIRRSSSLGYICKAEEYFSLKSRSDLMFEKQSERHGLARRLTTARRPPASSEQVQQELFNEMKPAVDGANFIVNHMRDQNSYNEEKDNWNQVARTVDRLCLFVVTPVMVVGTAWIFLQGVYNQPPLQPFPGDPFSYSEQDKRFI
T5 sequence (P09483 31-630, stated change not applied): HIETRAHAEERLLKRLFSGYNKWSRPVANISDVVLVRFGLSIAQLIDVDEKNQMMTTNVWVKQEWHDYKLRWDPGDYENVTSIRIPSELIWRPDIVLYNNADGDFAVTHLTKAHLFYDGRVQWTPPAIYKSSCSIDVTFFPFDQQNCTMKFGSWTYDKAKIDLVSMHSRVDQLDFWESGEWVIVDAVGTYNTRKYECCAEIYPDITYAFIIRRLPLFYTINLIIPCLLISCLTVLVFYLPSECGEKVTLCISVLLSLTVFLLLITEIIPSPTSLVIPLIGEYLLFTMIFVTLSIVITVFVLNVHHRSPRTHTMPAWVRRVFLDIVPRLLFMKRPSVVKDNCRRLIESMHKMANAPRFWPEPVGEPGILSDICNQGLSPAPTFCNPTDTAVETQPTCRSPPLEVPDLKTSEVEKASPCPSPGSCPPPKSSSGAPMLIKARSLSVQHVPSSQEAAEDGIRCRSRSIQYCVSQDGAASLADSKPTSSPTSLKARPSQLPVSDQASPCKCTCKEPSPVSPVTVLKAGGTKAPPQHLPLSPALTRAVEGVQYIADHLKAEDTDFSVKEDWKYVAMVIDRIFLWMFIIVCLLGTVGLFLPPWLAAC
T5 sequence (P12390 25-500 V277F): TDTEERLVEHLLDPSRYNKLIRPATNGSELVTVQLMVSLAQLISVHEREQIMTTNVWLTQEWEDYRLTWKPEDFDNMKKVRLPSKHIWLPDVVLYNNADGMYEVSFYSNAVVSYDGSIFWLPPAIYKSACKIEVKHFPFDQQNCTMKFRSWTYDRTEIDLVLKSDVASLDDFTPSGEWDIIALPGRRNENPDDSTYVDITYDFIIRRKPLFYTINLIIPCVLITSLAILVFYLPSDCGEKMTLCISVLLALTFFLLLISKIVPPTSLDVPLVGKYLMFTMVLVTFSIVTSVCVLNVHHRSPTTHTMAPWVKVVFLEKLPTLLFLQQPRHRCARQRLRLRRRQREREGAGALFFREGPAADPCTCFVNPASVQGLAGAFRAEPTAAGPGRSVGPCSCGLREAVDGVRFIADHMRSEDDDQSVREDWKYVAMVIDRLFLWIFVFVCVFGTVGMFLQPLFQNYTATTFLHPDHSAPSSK
T2 sequence (P09483 31-630): as the sequence (P09483 31-630, stated change not applied) above
T2 sequence (P12392 21-495): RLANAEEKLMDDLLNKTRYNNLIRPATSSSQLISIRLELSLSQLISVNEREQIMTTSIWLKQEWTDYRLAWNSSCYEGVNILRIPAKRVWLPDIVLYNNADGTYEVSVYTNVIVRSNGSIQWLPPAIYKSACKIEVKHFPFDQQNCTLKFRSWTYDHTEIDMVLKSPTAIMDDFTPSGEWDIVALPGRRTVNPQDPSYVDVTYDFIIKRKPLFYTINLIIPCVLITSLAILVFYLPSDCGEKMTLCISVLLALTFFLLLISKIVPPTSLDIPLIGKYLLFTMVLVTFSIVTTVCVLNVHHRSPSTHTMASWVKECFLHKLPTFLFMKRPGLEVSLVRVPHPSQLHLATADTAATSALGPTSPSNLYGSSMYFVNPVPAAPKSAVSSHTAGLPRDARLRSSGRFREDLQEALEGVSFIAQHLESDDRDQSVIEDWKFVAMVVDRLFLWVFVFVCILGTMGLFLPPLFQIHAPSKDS
T4 sequence (P09483 31-630): as the sequence (P09483 31-630, stated change not applied) above
T4 sequence (P12390 25-500): as the sequence (P12390 25-500 V277F) above, with F253V counted along it
T1 sequence (P36544 23-502): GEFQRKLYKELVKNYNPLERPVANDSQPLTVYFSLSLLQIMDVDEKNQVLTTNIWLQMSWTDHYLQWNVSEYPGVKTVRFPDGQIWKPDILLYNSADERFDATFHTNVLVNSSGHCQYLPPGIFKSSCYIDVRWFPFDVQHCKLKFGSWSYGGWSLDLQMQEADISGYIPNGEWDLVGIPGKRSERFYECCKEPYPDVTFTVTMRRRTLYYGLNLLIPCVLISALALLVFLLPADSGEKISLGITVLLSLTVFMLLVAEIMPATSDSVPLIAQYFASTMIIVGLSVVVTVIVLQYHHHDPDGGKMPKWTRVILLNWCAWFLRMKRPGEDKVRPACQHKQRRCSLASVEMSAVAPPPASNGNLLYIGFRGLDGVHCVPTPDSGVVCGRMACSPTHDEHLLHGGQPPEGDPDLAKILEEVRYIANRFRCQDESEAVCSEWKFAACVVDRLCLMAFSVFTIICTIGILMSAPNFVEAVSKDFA
T3 sequence (P04757 26-499): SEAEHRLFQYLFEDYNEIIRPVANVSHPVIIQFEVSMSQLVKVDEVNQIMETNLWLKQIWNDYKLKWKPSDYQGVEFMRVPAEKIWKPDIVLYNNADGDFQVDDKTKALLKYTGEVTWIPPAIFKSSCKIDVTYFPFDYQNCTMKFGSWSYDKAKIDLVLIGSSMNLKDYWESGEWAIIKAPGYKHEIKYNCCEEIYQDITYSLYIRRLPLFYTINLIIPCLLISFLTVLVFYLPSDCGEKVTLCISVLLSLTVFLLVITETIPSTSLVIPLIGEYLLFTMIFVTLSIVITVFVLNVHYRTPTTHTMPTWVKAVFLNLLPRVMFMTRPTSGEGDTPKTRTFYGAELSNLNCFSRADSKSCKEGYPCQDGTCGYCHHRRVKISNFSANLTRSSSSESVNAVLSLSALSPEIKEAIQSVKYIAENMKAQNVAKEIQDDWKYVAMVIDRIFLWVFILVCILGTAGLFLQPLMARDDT
T3 sequence (P12392 21-495): as the sequence (P12392 21-495) above
T7 sequence (P04757 26-499): as the sequence (P04757 26-499) above
T7 sequence (P12392 21-495 F275V): as the sequence (P12392 21-495) above, with F255V counted along it
Sequence of α3β2 nAChR (P04757 26-499): as the sequence (P04757 26-499) above
Sequence of α3β2 nAChR (P12390 25-500): as the sequence (P12390 25-500 V277F) above, with F253V counted along it

## CCCC(=O)N[C@@H](Cc1ccc(O)cc1)C(=O)NCCCNCCCCNCCCN [PhTX-343]
α7 nAChR; Late, α7, VH −60 mV, based on the area under the current trace (no stable late current)
  IC50: 6.56 µM
α7 nAChR; Late, α7, VH −80 mV, based on the area under the current trace (no stable late current)
  IC50: 5.06 µM
α7 nAChR; Late, α7, VH −100 mV, based on the area under the current trace (no stable late current)
  IC50: 6.77 µM
α7 nAChR; Peak, α7, VH −60 mV, peak current
  IC50: 6.71 µM
α7 nAChR; Peak, α7, VH −80 mV, peak current
  IC50: 6.48 µM
α7 nAChR; Peak, α7, VH −100 mV, peak current
  IC50: 8.8 µM
α7 nAChR; homomeric α7, VH −60 to −100 mV
  voltage dependence of inhibition: voltage-independent
α7 nAChR; α7, 30 μM toxin, peak current, −80 mV
  surmountability of peak current inhibition by increasing ACh concentrations: surmountable
α7 nAChR; α7, 30 μM toxin, washing in frog Ringer solution, −80 mV
  reversibility of inhibition: reversible after 6 min
α7 nAChR; α7 vs α3β4 (for PhTX-12: α1β1γδ along with α3β4), late current IC50, −80 mV
  times less sensitive than the most sensitive subtype: 422 times
[1]
  IC50: 0.1 µM
α4β4 nAChR; Late, α4β4, VH −60 mV, late current (1 min)
  IC50: 0.17 µM
α4β4 nAChR; Late, α4β4, VH −80 mV, late current (1 min)
  IC50: 0.065 µM
α4β4 nAChR; Late, α4β4, VH −100 mV, late current (1 min)
  IC50: 0.027 µM
α4β4 nAChR; Peak, α4β4, VH −60 mV, peak current
  IC50: 0.97 µM
α4β4 nAChR; Peak, α4β4, VH −80 mV, peak current
  IC50: 0.35 µM
α4β4 nAChR; Peak, α4β4, VH −100 mV, peak current
  IC50: 0.29 µM
α4β4 nAChR; α4β4, 10 μM toxin, −80 mV
  recovery of peak current after six ACh applications (36 min): very limited or absent
α4β4 nAChR; α4β4, peak current
  decrease of peak current IC50 from −60 mV to VH −100 mV: 3.3 fold
α4β4 nAChR; α4β4 vs α3β4 (for PhTX-12: α1β1γδ along with α3β4), late current IC50, −80 mV
  times less sensitive than the most sensitive subtype: 5 times
α4β4 nAChR; α4β4 vs α4β2, late current
  late current IC50 lower than that for α4β2: ~5 fold
α4β4 nAChR; α4β4 vs α4β2, peak current
  peak current IC50 lower than that for α4β2: roughly 3 fold
α3β4 nAChR; Late, α3β4, VH −60 mV, late current (1 min), ACh 100 μM
  IC50: 0.088 µM
α3β4 nAChR; Late, α3β4, VH −80 mV, late current (1 min), ACh 100 μM
  IC50: 0.012 µM
α3β4 nAChR; Late, α3β4, VH −100 mV, late current (1 min), ACh 100 μM
  IC50: 0.0077 µM
α3β4 nAChR; Peak, α3β4, VH −60 mV, peak current, ACh 100 μM
  IC50: 0.29 µM
α3β4 nAChR; Peak, α3β4, VH −80 mV, peak current, ACh 100 μM
  IC50: 0.08 µM
α3β4 nAChR; Peak, α3β4, VH −100 mV, peak current, ACh 100 μM
  IC50: 0.077 µM
α3β4 nAChR; [2]
  recovery of late current after six ACh applications (36 min): 69 % of control
  recovery of peak current after six ACh applications (36 min): 82 % of control
α3β4 nAChR; α3β4, peak current
  decrease of peak current IC50 from −60 mV to VH −100 mV: 3.8 fold
α3β4 nAChR; α3β4, peak current, −80 mV
  more potent than PhTX-12, peak current inhibition: 33 fold
α3β4 nAChR; α3β4 vs α3β2, peak current, −80 mV
  potency higher as compared to α3β2, peak current: 115 fold
α4β2 nAChR; Late, α4β2, VH −60 mV, late current (1 min)
  IC50: 0.46 µM
α4β2 nAChR; Late, α4β2, VH −80 mV, late current (1 min)
  IC50: 0.31 µM
α4β2 nAChR; Late, α4β2, VH −100 mV, late current (1 min)
  IC50: 0.08 µM
α4β2 nAChR; Peak, α4β2, VH −60 mV, peak current
  IC50: 1.9 µM
α4β2 nAChR; Peak, α4β2, VH −80 mV, peak current
  IC50: 0.93 µM
α4β2 nAChR; Peak, α4β2, VH −100 mV, peak current
  IC50: 0.14 µM
α4β2 nAChR; α4β2, 10 μM toxin, −80 mV
  recovery of peak current after six ACh applications (36 min): very limited or absent
α4β2 nAChR; α4β2, peak current
  decrease of peak current IC50 from −60 mV to VH −100 mV: 14 fold
α4β2 nAChR; α4β2 vs α3β4 (for PhTX-12: α1β1γδ along with α3β4), late current IC50, −80 mV
  times less sensitive than the most sensitive subtype: 26 times
nAChRs; 100 μM applied alone, VH = −80 mV, oocytes expressing nAChRs
  effect on membrane current when applied alone: did not produce any effect on membrane current
nAChRs; all nAChRs including α7 and α1β1γδ, late current, −80 mV
  surmountability of late current inhibition by high ACh concentrations: not surmountable
nAChRs; heteromeric nAChRs, VH −60 to −100 mV
  voltage dependence of inhibition: strongly voltage-dependent
nAChRs; heteromeric neuronal nAChRs, 10 μM toxin, −80 mV
  reversibility of inhibition: irreversible
α3β2 nAChR; Late, α3β2, VH −60 mV, late current (1 min)
  IC50: 1.59 µM
α3β2 nAChR; Late, α3β2, VH −80 mV, late current (1 min)
  IC50: 1.37 µM
α3β2 nAChR; Late, α3β2, VH −100 mV, late current (1 min)
  IC50: 0.37 µM
α3β2 nAChR; Peak, α3β2, VH −60 mV, peak current
  IC50: 64.5 µM
α3β2 nAChR; Peak, α3β2, VH −80 mV, peak current
  IC50: 9.26 µM
α3β2 nAChR; Peak, α3β2, VH −100 mV, peak current
  IC50: 3.59 µM
α3β2 nAChR; α3β2, 10 μM toxin, −80 mV
  recovery of peak current after six ACh applications (36 min): very limited or absent
α3β2 nAChR; α3β2, peak current
  decrease of peak current IC50 from −60 mV to VH −100 mV: 18 fold
α3β2 nAChR; α3β2 vs α3β4 (for PhTX-12: α1β1γδ along with α3β4), late current IC50, −80 mV
  times less sensitive than the most sensitive subtype: 114 times
α4β2(V253F) nAChR; α4β2(V253F) vs α4β2, late current, −80 mV
  reduction in late current IC50 as compared to α4β2: 2.6 fold
α4β2(V253F) nAChR; α4β2(V253F) vs α4β2, peak current, −80 mV
  change in peak current IC50 as compared to α4β2: no significant change
α4β2(V253F) nAChR; [3]
  IC50: 0.063 µM
α4β2(V253F) nAChR; [4]
  IC50: 0.62 µM
α4β2(V253F) nAChR; [5]
  IC50: 0.12 µM
α4β2(V253F) nAChR; [6]
  IC50: 0.75 µM
α4β2(V253F) nAChR; [7]
  IC50: 0.014 µM
α4β2(V253F) nAChR; [8]
  IC50: 0.11 µM
α1β1γδ nAChR; Late, α1β1γδ, VH −60 mV, late current (1 min)
  IC50: 18 µM
α1β1γδ nAChR; Late, α1β1γδ, VH −80 mV, late current (1 min)
  IC50: 12 µM and 11.9 µM
α1β1γδ nAChR; Late, α1β1γδ, VH −100 mV, late current (1 min)
  IC50: 2.44 µM
α1β1γδ nAChR; Peak, α1β1γδ, VH −60 mV, peak current
  IC50: 27.1 µM
α1β1γδ nAChR; Peak, α1β1γδ, VH −80 mV, peak current
  IC50: 15.1 µM
α1β1γδ nAChR; Peak, α1β1γδ, VH −100 mV, peak current
  IC50: 3.26 µM
α1β1γδ nAChR; α1β1γδ vs α3β4, late current IC50, −80 mV
  times less sensitive than the most sensitive subtype: 992 times and 1000 times
α1β1γδ nAChR; α1β1γδ, 10 μM toxin, peak current, −80 mV
  surmountability of peak current inhibition by increasing ACh concentrations: surmountable
α1β1γδ nAChR; α1β1γδ, 100 μM toxin, washing in frog Ringer solution, −80 mV
  reversibility of inhibition: reversible after 6 min
α3β4(F255V) nAChR; α3β4(F255V) vs α3β4, late current, −80 mV
  increase in late current IC50 as compared to α3β4: did not see the expected increase
α3β4(F255V) nAChR; α3β4(F255V) vs α3β4, peak current, −80 mV
  reduction in peak current IC50 as compared to α3β4: 2.1 fold
α3β4(F255V) nAChR; [3]
  IC50: 0.074 µM
α3β4(F255V) nAChR; [4]
  IC50: 0.31 µM
α3β4(F255V) nAChR; [5]
  IC50: 0.012 µM
α3β4(F255V) nAChR; [6]
  IC50: 0.038 µM
α3β4(F255V) nAChR; [7]
  IC50: 0.005 µM
α3β4(F255V) nAChR; [8]
  IC50: 0.017 µM

Source: publication PMC5128878 (Scientific Reports, 2016)
